Assay results as given in PMC10023259 (Science (New York, N.Y.), 2022).

Key:
LYCHOS-GATOR1 complex = LYCHOS-GATOR1 complex (Homo sapiens, UniProt Q7Z3F1); assay: FLAG co-immunoprecipitation of GATOR1 with LYCHOS from cholesterol-refed cells; format: cell-based
LYCHOS (GPR155) = target: T1, LYCHOS (GPR155) (Homo sapiens, UniProt Q7Z3F1); assay: [3H]-cholesterol saturation binding, scintillation counting
T1 sequence (Q7Z3F1 1-870): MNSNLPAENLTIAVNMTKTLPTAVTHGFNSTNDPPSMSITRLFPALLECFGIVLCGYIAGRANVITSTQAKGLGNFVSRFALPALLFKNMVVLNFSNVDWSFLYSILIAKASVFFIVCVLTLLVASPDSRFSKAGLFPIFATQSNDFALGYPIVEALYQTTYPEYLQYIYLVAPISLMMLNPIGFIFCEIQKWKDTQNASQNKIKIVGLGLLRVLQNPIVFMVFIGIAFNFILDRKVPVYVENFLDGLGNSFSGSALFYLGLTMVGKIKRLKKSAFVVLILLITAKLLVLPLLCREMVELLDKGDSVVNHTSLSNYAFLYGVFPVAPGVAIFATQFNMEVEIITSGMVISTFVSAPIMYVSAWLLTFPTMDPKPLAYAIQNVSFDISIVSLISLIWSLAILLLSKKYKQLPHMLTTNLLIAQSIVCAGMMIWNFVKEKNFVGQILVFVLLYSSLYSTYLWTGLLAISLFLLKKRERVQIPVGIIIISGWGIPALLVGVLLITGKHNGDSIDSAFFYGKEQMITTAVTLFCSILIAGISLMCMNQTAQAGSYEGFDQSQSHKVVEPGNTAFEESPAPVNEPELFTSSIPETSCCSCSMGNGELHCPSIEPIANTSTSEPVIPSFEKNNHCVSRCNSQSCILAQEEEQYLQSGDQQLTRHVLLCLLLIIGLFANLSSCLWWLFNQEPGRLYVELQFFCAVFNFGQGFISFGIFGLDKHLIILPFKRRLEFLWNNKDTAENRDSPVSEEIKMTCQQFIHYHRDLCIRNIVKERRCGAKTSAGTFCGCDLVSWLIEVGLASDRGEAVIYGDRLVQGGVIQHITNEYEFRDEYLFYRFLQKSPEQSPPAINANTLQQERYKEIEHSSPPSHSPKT

Sequence of LYCHOS-GATOR1 complex (O75140 whole entry partner, one chain of several): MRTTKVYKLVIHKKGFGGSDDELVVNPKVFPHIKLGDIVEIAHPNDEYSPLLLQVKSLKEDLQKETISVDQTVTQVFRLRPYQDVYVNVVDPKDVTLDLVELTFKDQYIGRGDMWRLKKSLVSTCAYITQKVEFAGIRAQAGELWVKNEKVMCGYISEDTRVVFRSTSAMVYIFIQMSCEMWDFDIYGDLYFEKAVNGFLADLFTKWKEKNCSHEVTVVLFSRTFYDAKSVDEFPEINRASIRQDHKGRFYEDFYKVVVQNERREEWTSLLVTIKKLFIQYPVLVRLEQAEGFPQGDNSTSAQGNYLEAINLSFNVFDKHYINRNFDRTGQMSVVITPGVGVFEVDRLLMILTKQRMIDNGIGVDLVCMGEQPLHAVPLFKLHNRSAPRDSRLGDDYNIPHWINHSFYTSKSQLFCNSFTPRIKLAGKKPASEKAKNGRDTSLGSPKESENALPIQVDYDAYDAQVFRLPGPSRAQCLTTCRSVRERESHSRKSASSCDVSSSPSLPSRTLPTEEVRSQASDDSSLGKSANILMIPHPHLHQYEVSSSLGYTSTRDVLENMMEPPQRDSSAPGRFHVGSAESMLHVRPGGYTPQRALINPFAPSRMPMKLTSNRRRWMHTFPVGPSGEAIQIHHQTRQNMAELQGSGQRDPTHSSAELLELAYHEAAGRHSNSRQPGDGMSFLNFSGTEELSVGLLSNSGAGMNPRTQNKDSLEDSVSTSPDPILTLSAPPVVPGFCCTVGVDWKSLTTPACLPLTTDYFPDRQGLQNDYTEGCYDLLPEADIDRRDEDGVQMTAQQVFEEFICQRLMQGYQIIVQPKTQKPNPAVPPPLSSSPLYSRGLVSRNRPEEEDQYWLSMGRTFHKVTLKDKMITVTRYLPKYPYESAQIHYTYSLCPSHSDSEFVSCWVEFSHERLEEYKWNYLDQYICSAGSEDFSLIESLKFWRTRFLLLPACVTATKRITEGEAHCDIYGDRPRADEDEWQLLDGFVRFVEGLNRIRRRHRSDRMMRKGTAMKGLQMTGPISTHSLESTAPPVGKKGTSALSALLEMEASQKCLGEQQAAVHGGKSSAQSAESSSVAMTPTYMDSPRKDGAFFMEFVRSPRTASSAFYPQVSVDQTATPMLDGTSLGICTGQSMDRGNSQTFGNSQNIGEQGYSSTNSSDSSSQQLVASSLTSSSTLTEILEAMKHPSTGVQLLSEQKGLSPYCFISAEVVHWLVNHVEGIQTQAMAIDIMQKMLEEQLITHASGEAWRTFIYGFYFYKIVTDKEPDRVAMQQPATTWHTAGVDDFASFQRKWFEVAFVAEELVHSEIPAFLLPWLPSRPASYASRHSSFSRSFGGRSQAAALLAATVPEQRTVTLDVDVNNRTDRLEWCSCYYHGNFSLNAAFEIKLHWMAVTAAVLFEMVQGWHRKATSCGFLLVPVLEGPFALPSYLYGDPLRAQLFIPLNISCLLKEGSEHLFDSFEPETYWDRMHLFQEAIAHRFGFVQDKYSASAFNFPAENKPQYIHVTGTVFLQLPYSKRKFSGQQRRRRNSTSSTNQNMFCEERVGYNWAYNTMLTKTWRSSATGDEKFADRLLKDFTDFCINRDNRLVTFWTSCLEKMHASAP
Sequence of LYCHOS-GATOR1 complex (Q8WTW4 whole entry partner, one chain of several): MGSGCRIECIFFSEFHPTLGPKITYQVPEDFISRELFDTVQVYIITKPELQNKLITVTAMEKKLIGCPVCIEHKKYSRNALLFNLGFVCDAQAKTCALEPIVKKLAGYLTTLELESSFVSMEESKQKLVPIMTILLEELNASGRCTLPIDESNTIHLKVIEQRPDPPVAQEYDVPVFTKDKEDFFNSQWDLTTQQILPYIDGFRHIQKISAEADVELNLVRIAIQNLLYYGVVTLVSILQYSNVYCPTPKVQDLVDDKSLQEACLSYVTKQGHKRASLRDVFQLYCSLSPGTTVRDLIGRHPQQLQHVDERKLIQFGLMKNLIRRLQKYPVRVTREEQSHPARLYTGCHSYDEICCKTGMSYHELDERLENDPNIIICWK
Sequence of LYCHOS-GATOR1 complex (Q12980 whole entry partner, one chain of several): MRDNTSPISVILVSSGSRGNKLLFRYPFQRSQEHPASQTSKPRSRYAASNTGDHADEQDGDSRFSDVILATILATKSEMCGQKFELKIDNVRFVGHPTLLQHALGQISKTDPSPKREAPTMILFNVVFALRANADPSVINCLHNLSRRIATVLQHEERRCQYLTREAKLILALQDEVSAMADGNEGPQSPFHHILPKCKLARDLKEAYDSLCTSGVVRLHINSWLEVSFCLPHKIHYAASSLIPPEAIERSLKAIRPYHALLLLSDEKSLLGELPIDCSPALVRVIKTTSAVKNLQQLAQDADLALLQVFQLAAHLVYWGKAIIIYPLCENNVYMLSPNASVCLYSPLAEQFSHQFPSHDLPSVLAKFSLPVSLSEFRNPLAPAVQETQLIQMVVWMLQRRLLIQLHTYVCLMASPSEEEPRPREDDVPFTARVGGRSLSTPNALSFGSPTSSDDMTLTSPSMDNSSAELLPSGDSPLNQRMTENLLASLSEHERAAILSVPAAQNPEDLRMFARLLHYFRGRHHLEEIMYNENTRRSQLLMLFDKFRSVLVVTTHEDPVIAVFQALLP

EC50 (LYCHOS-GATOR1 complex): 31.5 µM
Kd (LYCHOS (GPR155)): 0.1 to 0.2 µM
SMILES: CC(C)CCC[C@@H](C)[C@H]1CC[C@H]2[C@@H]3CC=C4C[C@@H](O)CC[C@]4(C)[C@H]3CC[C@]12C [cholesterol]
